These results are taken from PubChem BioAssay AID1645864 (Buhrlage Lab, Dana-Farber Cancer Institute and Novartis …, 2021).

Molecules are shown by their SMILES. The source made the active and inactive calls.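 Rule for the calls: active = maximal inhibition of USP17 at or above 30% in the confirmation dose-response, a value not among the printed readouts; inactive = the rest.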 A value given as a limit tells only on which side of the number the result lay.

Ubiquitin carboxyl-terminal hydrolase 17-like protein 5 (Homo sapiens), sequence (A8MUK1 whole entry, looked up): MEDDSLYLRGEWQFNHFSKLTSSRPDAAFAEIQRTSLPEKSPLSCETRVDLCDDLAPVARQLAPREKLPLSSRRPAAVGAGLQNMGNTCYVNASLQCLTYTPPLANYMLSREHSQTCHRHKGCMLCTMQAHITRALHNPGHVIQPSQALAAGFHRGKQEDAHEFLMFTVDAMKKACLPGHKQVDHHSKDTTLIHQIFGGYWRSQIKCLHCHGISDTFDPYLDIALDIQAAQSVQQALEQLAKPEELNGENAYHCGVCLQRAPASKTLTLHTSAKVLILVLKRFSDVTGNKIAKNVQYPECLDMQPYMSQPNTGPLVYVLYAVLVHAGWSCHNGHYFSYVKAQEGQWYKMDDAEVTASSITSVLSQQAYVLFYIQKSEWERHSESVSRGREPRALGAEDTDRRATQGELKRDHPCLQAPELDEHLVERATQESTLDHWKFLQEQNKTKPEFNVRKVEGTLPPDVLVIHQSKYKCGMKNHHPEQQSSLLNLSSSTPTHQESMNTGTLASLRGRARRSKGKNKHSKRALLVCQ

This assay addresses Ubiquitin carboxyl-terminal hydrolase 17-like protein 5 (Homo sapiens) (UniProt A8MUK1). The experiment in a line: ubiquitin-specific protease 17 inhibitors, concentration series, biochemical, verification of primary actives (AID 1645864). The following applies: purified USP17, ubiquitin-rhodamine cleavage fluorescence, 3 h.
A word on the IC50: it is the midpoint of a concentration-inhibition curve. With `O=C(c1ccc(COc2cccc3ccccc23)o1)N1CCC(Cc2ccccc2)CC1`, the IC50 was > 50 µM (inactive).

On to `Cc1cccc(-c2nc3n(CC(=O)Nc4ccc(Cl)cc4)c(C)cc(=O)n3n2)c1`, for which the IC50 was 0.335 µM. Turning to `COc1ccc(-c2nc(CNC(=O)COc3ccc(C)cc3)cs2)cc1`, the IC50 was 36.9 µM.

Take `Cc1ccc(-n2c(-c3ccccc3)cn3c4c(=O)[nH]c(=O)n(C)c4nc23)cc1Cl`: the IC50 is 0.226 µM.

As for `CCOc1ccc(C(=O)Cn2c(=O)n(CC3CCCO3)c(=O)c3cc(OC)c(OC)cc32)cc1Cl` (stereo not drawn), the IC50 was 17.7 µM.

With `O=C(O)C1CCN(Cc2c(-c3ccco3)nc3ccc(Cl)cn23)CC1`, the IC50 is > 50 µM (inactive). As for `O=C(Nc1ncc2c(n1)-c1ccccc1CC2)C1CC1`, the IC50 is 20.9 µM. For `COc1ccc(CNC(=O)C(C)n2nc(-c3ccco3)c(-c3cc(C)no3)cc2=O)cc1` (stereo not drawn), the IC50 is 25.1 µM. Turning to `COc1cccc2c1OCC(C(=O)NCc1ccc(F)cc1)=C2`, the IC50 is > 50 µM (inactive). As for `Cc1ccc(Cn2nnc(-c3noc(-c4ccc[nH]4)n3)c2C)cc1`, the IC50 was > 50 µM (inactive). Turning to `CCC(=O)OCc1cnc(C)c2oc(=O)c(-c3nc(-c4ccccc4)no3)cc12`, the IC50 was > 50 µM (inactive). Regarding `COc1ccc(OC)c(NC(=O)Cn2c(=O)n(CC3CCC(C(=O)NCCc4ccccc4)CC3)c(=O)c3ccccc32)c1` (stereo not drawn), the IC50 is 0.262 µM. On to `O=C(Cn1cnc(-c2noc(-c3ccncc3)n2)c1)N1CCN(c2ccccc2F)CC1`, for which the IC50 is > 50 µM (inactive).

With `O=c1c(S(=O)(=O)c2cc(F)cc(F)c2)c[nH]c2cc(Cl)ccc12`, the IC50 is 23.8 µM.

Take `O=C(c1ccc2cc[nH]c2c1)N1CCC(Nc2cccnc2)C1` (stereo not drawn): the IC50 is > 50 µM (inactive). Take `CN1CCC(N(C)S(=O)(=O)c2ccc(NC(=O)c3cccc(OCc4ccccc4)c3)cc2)CC1`: the IC50 was > 50 µM (inactive). Turning to `COc1ccc(NC(=O)c2[nH]nc3c2COc2ccccc2-3)c(OC)c1`, the IC50 was 5.5 µM.

For the compound `COC(=O)c1ccc(C(=O)Nc2cc3ccccc3cc2NC(=O)c2ccc(C(=O)OC)cc2)cc1`, the IC50 was 0.68 µM. In the case of `CC(C)N1CC[C@@H]2[C@H](C1)CN2C(=O)Nc1cccc(F)c1`, the IC50 was > 50 µM (inactive). The same measure for `CC1CCN(c2nc(F)c3c(c2F)S(=O)(=O)CCN3Cc2cccnc2)CC1`: > 50 µM (inactive). As for `O=C(CSc1nc2ccncc2[nH]1)Nc1ccc(Br)cc1F`, the IC50 was 37.9 µM. For `O=C(Cn1cncc(-c2nc(-c3ccccc3)cs2)c1=O)NC1CCCC1`, the IC50 was 39.5 µM. Turning to `O=C(Cn1c(=O)n(Cc2ccc3c(c2)OCO3)c(=O)c2ncccc21)c1ccccc1`, the IC50 was 46.8 µM. Consider `COc1ccc(Cl)cc1NC(=O)c1cc(-c2ccccn2)n[nH]1`, for which the IC50 was 0.202 µM. Regarding `CNC(=O)c1cc2nc(N(C)C)n(-c3ccc(F)cc3)c2s1`, the IC50 was > 50 µM (inactive).

Regarding `CCCc1nc2sc3c(NCc4ccco4)ncnc3c2c2c1CCC2`, the IC50 is > 50 µM (inactive).

As for `COc1cccc(NC(=O)c2nnn(-c3ccccc3)n2)c1`, the IC50 is > 50 µM (inactive).

With `CCN(CCCNC(=O)c1ccc(Cn2c(=O)[nH]c3ccccc3c2=O)cc1)c1ccccc1`, the IC50 was 16 µM.

As to `COc1ccc(CCN2COc3c(cc(Cl)c4cccnc34)C2)cc1OC`, the IC50 was 24.8 µM. On to `Nc1c(C(=O)Nc2ccc3c(c2)OCO3)sc2nc(-c3cccnc3)ccc12`, for which the IC50 was 1.64 µM. `CCCCCCCc1cc(O)cc(O)c1`: the IC50 was > 50 µM (inactive). On to `Cn1c(-c2nnc(SCC(=O)NCCc3ccccc3)o2)cc2ccccc21`, for which the IC50 was 8.23 µM.

Take `CCOc1ccc(NC(=O)Cn2c(=O)n(CCCCCC(=O)NCc3ccc(F)cc3)c(=O)c3sccc32)cc1`: the IC50 is 2.16 µM. Take `c1cnc(-c2n[nH]c(C3CCN(C4CCNC4)CC3)n2)cn1` (stereo not drawn): the IC50 was > 50 µM (inactive). For the compound `O=C(Cc1cccnc1)Nc1ccc(N2CCN(C3CCCCC3)C2=O)nc1`, the IC50 was > 50 µM (inactive). As for `c1ccc(-n2nnc(-c3noc(-c4cccnc4)n3)c2-c2ccncc2)cc1`, the IC50 is 27.9 µM. As to `COc1ccc(C2CC(=O)Nc3n[nH]c(-c4ccccc4)c32)cc1OC` (stereo not drawn), the IC50 was 29.7 µM. In the case of `CC(=O)N1CCOc2cc(S(=O)(=O)N3CCCC3c3cc(C)no3)ccc21` (stereo not drawn), the IC50 is > 50 µM (inactive).

With `CCn1c(CNc2ccc(Cl)cc2)nnc1SCC(=O)Nc1ccccc1`, the IC50 is > 50 µM (inactive). On to `O=S(=O)(c1ccccc1Cl)N1CCN(c2ccc3nnc(-c4ccco4)n3n2)CC1`, for which the IC50 is > 50 µM (inactive).

As to `O=C(Nc1ccccc1)c1cn(-c2cc(N3CCCC3)ncn2)cn1`, the IC50 was > 50 µM (inactive).

Regarding `Cc1cccc(-c2noc(CCn3c(=O)[nH]c4ccccc4c3=O)n2)c1`, the IC50 is 34.5 µM. Regarding `COc1cc(O)c2c(c1)C1=CC(=O)C(O)=C[C@]1(C)OC2=O`, the IC50 was 49.4 µM. Turning to `O=C1COc2ccccc2N1Cc1noc(-c2ccccc2)n1`, the IC50 was > 50 µM (inactive).

Regarding `COc1cccc(C(=O)Oc2ccc3c(=O)c(-c4ccc(OC)c(OC)c4)coc3c2)c1`, the IC50 was 0.167 µM. For `O=C1c2ccccc2NC2(C(=O)Nc3ccc(Br)cc32)N1c1ccccc1` (stereo not drawn), the IC50 was > 50 µM (inactive). Consider `COc1ccc2c(c1)c(N1CCCC1=O)c(C(=O)NCc1cccc(OC)c1OC)n2C`, for which the IC50 was > 50 µM (inactive). For the compound `O=C(c1ccco1)N1CCCC2(C1)Nc1cccnc1NC2=NC1CCCC1` (stereo not drawn), the IC50 was > 50 µM (inactive). Take `COc1ccc(OC)c(CCNC(=O)CCC2=NS(=O)(=O)c3ccc(C(F)(F)F)cc3N2)c1`: the IC50 was 26.9 µM. Take `O=C(Nc1cccc(Cl)c1)N1CCC(c2cc(-c3ccco3)n[nH]2)CC1`: the IC50 is 3.52 µM. Regarding `COc1ccc(NC(=O)COc2ccc3ccc(=O)oc3c2)cc1`, the IC50 is 33.5 µM.

For the compound `Cc1nc(C(=O)NC2(O)C(=O)c3ccccc3C2=O)cs1`, the IC50 is 2.06 µM. Regarding `CCC(=O)Nc1cccnc1-c1ccc(C(=O)Nc2cccc(OC)c2)cc1`, the IC50 is > 50 µM (inactive). In the case of `O=C(Nc1nc2c(ccc3ccccc32)s1)c1cccc(Br)c1`, the IC50 is 2.7 µM. In the case of `COc1cccc(CC(=O)Nc2cc(F)c3nc(N4CCOCC4)ccc3c2)c1` it was > 50 µM (inactive).

In the case of `Cc1ccc2c(c1C)NC(=O)[C@]21[C@@H]2C(=O)N(c3cccc(Cl)c3)C(=O)[C@@H]2[C@@H]2CCCN21`, the IC50 is > 50 µM (inactive). Consider `O=C(c1cc(Cl)ccc1Cl)N1CCN(c2ccc3nnc(-c4ccco4)n3n2)CC1`, for which the IC50 was > 50 µM (inactive). Regarding `CCOc1ccccc1NC(=O)COc1cc(OC)ccc1C(=O)c1ccccc1`, the IC50 is > 50 µM (inactive). Turning to `Cc1cc(NCC2CC2)n2nc(Nc3cc(Cl)ccc3C)nc2n1`, the IC50 was 30.4 µM.

Regarding `Cc1ccc(S(=O)(=O)N2CCC3(CC2)NC(=O)c2ccccc2N3)c(C)c1`, the IC50 is 17.9 µM. With `O=C(COc1ccc2ccccc2c1)Nc1cccc2ccccc12`, the IC50 is 15.8 µM. As to `Cc1cccc(NC(=O)Cn2c(N3CCOCC3)nc3cc(C)n(C)c3c2=O)c1`, the IC50 was 27.6 µM. In the case of `COc1ccc(-c2nc(Cn3nnc(C(=O)Nc4ccc(C)c(C)c4)c3N)c(C)o2)cc1`, the IC50 was 2.24 µM. Consider `COc1cccc(-n2ccc(=O)c(-c3nc(-c4ccccc4Cl)no3)n2)c1`, for which the IC50 is > 50 µM (inactive).

Take `O=C(Nc1cccc(S(=O)(=O)N2CCCC2)c1)c1ccc2c(=O)n3c(nc2c1)CCCCC3`: the IC50 was > 50 µM (inactive). In the case of `COc1ccc(-c2nc(-c3nnn(Cc4ccc(F)cc4)c3C)no2)c(OC)c1` it was 6.53 µM. The same measure for `Cc1noc(-c2cc(=O)n(CC(=O)NCc3ccccc3)c3ccccc23)n1`: 45.6 µM; for `Cc1nn(-c2ccc(F)cc2)cc1-c1noc(C(=O)NCc2ccccn2)n1`: 23.5 µM. Regarding `Cc1ccccc1C(=O)c1ccc(C(=O)NC2CCCCCC2)[nH]1`, the IC50 is 2.96 µM.

As to `CCOc1ccc(NC(=O)Cn2cnc(S(=O)(=O)N3CCc4ccccc43)c2)cc1`, the IC50 is 23.6 µM. For the compound `COc1ccc(CC(NC(C)=O)C(=O)NC2CCN(c3c(Cc4ccccc4)c(C)nc4ncnn34)CC2)cc1OC` (stereo not drawn), the IC50 was > 50 µM (inactive). Consider `CCn1c(Cn2cccn2)nc2cc(NC(=O)c3ccc(F)cc3)ccc21`, for which the IC50 was > 50 µM (inactive). `CC(C)Cc1nc2sc3c(NCCN4CCOCC4)ncnc3c2c2c1CCC2`: the IC50 is > 50 µM (inactive).

Consider `Cc1cc(NC(=O)c2cc(-c3cccnc3)n[nH]2)ccc1Br`, for which the IC50 was 1.95 µM. Take `CCOC(=O)c1cc2c(ccn2C)n1CC(=O)N1CCc2ccccc2C1`: the IC50 is > 50 µM (inactive). The same measure for `Cc1ccc(C(=O)NCc2ccc(C(=O)Nc3ccc(C)c(C)c3)o2)cc1`: 24.1 µM; for `Cn1nc(-c2nc(-c3ccccc3)no2)c2c1CCN(C(=O)C1CC1)C2`: > 50 µM (inactive). Take `O=C(Nc1cc(F)ccc1F)c1ccn(COc2ccc(F)c(Cl)c2)n1`: the IC50 is 38.4 µM. Consider `Cc1ccc2c(c1)N(Cc1nc(-c3ccc(F)cc3)no1)C(=O)CO2`, for which the IC50 was > 50 µM (inactive).

Regarding `Cc1ccc2[nH]c(=O)c(CN(Cc3cccnc3)C(=O)c3cccc(Cl)c3)cc2c1`, the IC50 is > 50 µM (inactive). As for `COc1cc(COc2ccc3c(C)c(CC(=O)N4CC[C@@]5(O)CCCC[C@H]5C4)c(=O)oc3c2C)cc(OC)c1OC`, the IC50 is 38.9 µM. Regarding `COc1ccc(N2CCN(Cc3nnnn3Cc3ccc4c(c3)OCO4)CC2)cc1`, the IC50 is > 50 µM (inactive). As for `Cc1nc(SCC#N)c2oc3ccccc3c2n1`, the IC50 is 44.1 µM. In the case of `O=C(NC1CCN(Cc2ccccc2)CC1)c1[nH]nc2c1COc1ccccc1-2`, the IC50 was > 50 µM (inactive). In the case of `Cc1noc(-c2cccn(Cc3cccc(C(F)(F)F)c3)c2=O)n1` it was > 50 µM (inactive). Take `O=C(c1ccsc1)N1CCC2(C1)Nc1cccnc1NC2=NC1CCCC1` (stereo not drawn): the IC50 was > 50 µM (inactive). `CN1CCN(c2ccc3nc(-c4ccccc4)c(-c4ccccc4)nc3c2)CC1`: the IC50 is > 50 µM (inactive).

`CC(=O)Nc1cc2cc(-n3cccc3)ccc2oc1=O`: the IC50 is 3.83 µM.
